{
  "source": "patent US20090325923A1",
  "about": "“NEW METHOD FOR THE TREATMENT OF INFLAMMATORY DISEASES” (TOPOTARGET SWITZERLAND SA, priority 2006, published 2009)",
  "key": {"[1]": {"test_system": "human monocyte-derived dendritic cells", "test": "Annexin-V and propidium iodide survival assay in dendritic cells", "format": "cell-based", "details": "overnight increasing doses of FK866, LPS 6 h, vs untreated cells", "method": "(B) Human monocyte-derived dendritic cells were isolated and cultured overnight with increasing doses of FK866, and then stimulated with LPS for 6 h. At the end of the culture, the survival of cells was measured by Annexin-V and propidium iodide staining.\nIn another experiment, human monocyte-derived dendritic cells were isolated and cultured overnight with increasing doses of FK866, and then stimulated with LPS for 6 h."}, "[2]": {"test_system": "human monocyte-derived dendritic cells", "test": "LPS-stimulated cytokine secretion by ELISA in dendritic cells", "format": "cell-based", "method": "Human monocytic cell line THP-1, human peripheral blood mononuclear cells (PBMC), human monocyte-derived dendritic cells, or mouse peritoneal macrophages were isolated and cultured overnight with increasing doses of FK866, and then stimulated with LPS for 6 h. The culture supernatants were tested for TNF and IL-6 content by ELISA\nHuman dendritic cells (mean and SD from 5 different donors) were incubated with 20 nM FK866 before stimulation with LPS or LPS+IFNγ. Pro-inflammatory cytokine levels in the supernatant were measured by ELISA after 16 h of culture.\nThis example describes the inhibition of pro-inflammatory cytokines production by the competitive small molecular weight compound inhibitor of NMPRT, ((E)-N-[4-(1-benzoylpiperidin-4-yl)butyl]-3-(pyridin-3-yl)acrylamide, designated FK866). Human monocytic cell line THP-1, human peripheral blood mononuclear cells (PBMC), human monocyte-derived dendritic cells, or mouse peritoneal macrophages were isolated and cultured overnight with increasing doses of FK866, and then stimulated with LPS for 6 h. The culture supernatants were tested for TNF and IL-6 content by ELISA.\nThis example describes the inhibition of other pro-inflammatory cytokine production, in addition to TNFα, IL-1β and IL-6, by FK866. Human dendritic cells from 5 different donors were cultured with FK866 before stimulation with LPS or LPS+IFNγ. The culture supernatants were tested for TNFα, IL-12 (p40 and p70), and IL-23 content by ELISA."}, "[3]": {"test_system": "RAW264.7 cell line", "test": "TNFα mRNA levels by RT-PCR in RAW264.7 cells", "format": "cell-based, mouse", "details": "RAW 264.7, LPS in the presence of FK866, RT-PCR", "method": "The murine RAW264.7 cell line was stimulated with LPS in the presence of FK866. TNF protein concentrations were determined by ELISA (above panel) while mRNA levels were determined by RT-PCR (below panel).\nThis example illustrates that FK866 inhibits TNFα secretion at a posttranscriptional level. The murine RAW 264.7 cell line was incubated in the presence of graded doses of FK866, stimulated with microbial products, and levels of TNFα released in the supernatant evaluated by ELISA."}, "[4]": {"test_system": "Peritoneal exudates cells (PEC)", "test": "Intracellular NAD in thioglycollate-elicited peritoneal exudate cells in vivo", "design": "species or system mouse", "method": "Mice were treated with thioglycollate to elicit PEC, and then received 10 mg/kg FK866 by ip injection. PEC were obtained by lavage after different time points and intracellular NAD was determined. Data are mean±sem of 3 mice per group.\n(§1) Mice were treated with thioglycollate to elicit PEC, and then received 10 mg/kg FK866 or placebo by ip injection 7 h before ip challenge with LPS. Mean serum TNFα at 90 min+sem of 3 mice per group is shown. PEC were obtained by lavage and intracellular NAD was determined. Data are mean±sem of 3 mice per group.\nThis example illustrates that FK866 reduces intracellular NAD level in inflammatory cells in vivo. Naïve mice were treated ip with thioglycollate to elicit inflammatory cells, and then FK866 was administered ip at 10 mg/kg. Peritoneal exudates cells (PEC) were obtained by lavage at different time points after treatment, and intracellular NAD levels were determined using an enzymatic assay.\n(§2) This example illustrates that NAMPT inhibition reduces circulating TNFα during endotoxemia and correlates with diminished intracellular NAD in inflammatory cells. Naïve mice were treated ip with thioglycollate to elicit inflammatory cells, and then were treated ip with placebo or 10 mg/kg FK866 7 h before an intraperitoneal injection of LPS. Mice were bled 90 min later for evaluation of serum TNFα levels."}, "[5]": {"test_system": "TNFα", "test": "Serum TNFα after LPS challenge (endotoxemia)", "format": "in vivo, mouse", "details": "10 mg/kg ip 7 h before ip LPS, bled 90 min later, vs placebo", "method": "as §1, §2"}, "[6]": {"test_system": "RAW264.7 cell line", "test": "Intracellular NAD by enzymatic assay in RAW264.7 cells", "format": "cell-based, mouse", "details": "RAW264.7, overnight increasing doses of FK866, LPS 2 h", "method": "(A) The mouse macrophage cell line RAW264.7 was cultured overnight with increasing doses of FK866, and then stimulated with LPS for 2 h. The culture supernatants were tested for TNF content by ELISA and intracellular NAD levels were measured by an enzymatic assay.\n(B) RAW264.7 cells were cultured overnight in the presence of FK866 and the intracellular pool of NAD was restored by co-incubation of the cells with nicotinic acid (NA). Cells were then stimulated with LPS for 2 h and the culture supernatant was tested for TNF content by ELISA.\n(C) RAW264.7 cells were cultured overnight in the presence of FK866 and NAD levels were maintained by culturing the cells in the presence of extracellular NAD. Cells were then stimulated with LPS for 2 h and the culture supernatant was tested for TNF content by ELISA.\nThis example illustrates the correlation between proinflammatory cytokine secretion and NAD levels in the cell. The mouse macrophage cell line RAW264.7 was cultured overnight with increasing doses of FK866, and then stimulated with LPS for 2 h. The culture supernatants were tested for TNF content by ELISA and intracellular NAD levels were measured by an enzymatic assay.\nIn another experiment, RAW264.7 cells were cultured overnight in the presence of FK866 and the intracellular pool of NAD was restored by co-incubation of the cells with nicotinic acid. Nicotinic acid is a precursor of NAD, but its transformation into NAD is not dependent upon NMPRT and is thus not inhibited by FK866. Cells were then stimulated with LPS for 2 h and the culture supernatant was tested for TNF content by ELISA.\nIn another experiment, RAW264.7 cells were cultured overnight in the presence of FK866 and NAD levels were maintained by culturing the cells in the presence: of extra-cellular NAD. Cells were then stimulated with LPS for 2 h and the culture supernatant was tested for TNF content by ELISA."}, "[7]": {"details": "human dendritic cells from 5 donors, 20 nM FK866, LPS or LPS+IFNγ, 16 h"}},
  "data": [
    {"smiles": "O=C(/C=C/c1cccnc1)NCCCCC1CCN(C(=O)c2ccccc2)CC1", "note": "[FK866, (E)-N-[4-(1-benzoylpiperidin-4-yl)butyl]-3-(pyridine-3-yl)-acrylamide]", "values": [
      {"measurement": "survival of cells (Annexin-V and propidium iodide staining)", "setting": "[1]", "value": "no difference in survival"},
      {"measurement": "IL-12 (p40 and p70) production", "setting": "[2]; [7]", "value": "inhibited"},
      {"measurement": "IL-23 production", "setting": "[2]; [7]", "value": "inhibited"},
      {"measurement": "TNFα production", "setting": "[2]; [7]", "value": "inhibited"},
      {"measurement": "cytokine secretion (TNF and IL-6)", "setting": "[2]; human monocyte-derived dendritic cells, overnight increasing doses of FK866, LPS 6 h", "value": "inhibited cytokine secretion in a dose-dependent fashion"},
      {"measurement": "TNFα mRNA levels", "setting": "[3]", "value": "did not significantly affect"},
      {"measurement": "time of NAD nadir after injection", "setting": "[4]; 10 mg/kg ip", "value": 9, "unit": "h"},
      {"measurement": "time of NAD recovery after injection", "setting": "[4]; 10 mg/kg ip", "value": "around 14 h"},
      {"measurement": "intracellular NAD in PECs", "setting": "[4]; 10 mg/kg ip 7 h before ip LPS, same mice, vs placebo", "value": "significant decrease"},
      {"measurement": "intracellular NAD in PEC (macrophages) in vivo", "setting": "[4]; 10 mg/kg ip, lavage at different time points", "value": "significant time-dependent NAD depletion"},
      {"measurement": "circulating (serum) TNFα levels", "setting": "[5]", "value": "significant decrease"},
      {"measurement": "intracellular NAD levels", "setting": "[6]", "value": "inhibition of intracellular NAD levels"}
    ]}
  ]
}
